In test [1] the test system is acute prontyelocytic leukemia cells. As to conditions: acute treatment of cells; cited from earlier work.
For test [2] the test system is unchanged. Briefly: Chen et al.: acute treatment of leukemia cells with arsenic trioxide. As to conditions: equivalent of 0.1 μmoles per liter. Type of test: cell-based. As to the method: Bae cites a paper by Chen et at. (May 1, 1997) in his references, published more than a year before his patent filing, which recites the use of arsenic trioxide (As2O3) as an acute treatment on acute prontyelocytic leukemia cells. The treatment is effective over an exposure range of 0.5-2.0 μmoles per liter, but ineffective at 0.1 μmoles per liter. These values are equivalent to […] and 0.02 μg/ml, respectively. Chen requires just 9-36 percent of Bae's arsenic hexoxide dose to produce an acute effect on cells with arsenic trioxide. (Two percent of Bae's dose [0.1 μmoles per liter] is an […] cellular dose for arsenic trioxide.) For treating humans, Bae's prolonged daily exposure to arsenic hexoxide is 1818-times greater than […] effective cellular dose and 40,000-times greater than 50 ppb. Chen reports no human exposure data, but if he treated cancers in humans with an 1818-times greater daily dose of arsenic trioxide, that exposure would be 3600-14,400-times greater than this invention's 50 ppb or μg/L. Chen's ineffective dose would be 720-times greater than 50 μg/L.

As to arsenic trioxide, in test [1], the effective exposure range was 0.5-2.0 μmoles per liter and the ineffective exposure was 0.1 μmoles per liter. The “ineffective exposure, mass equivalent” value in test [2] worked out at 0.02 µg/mL.

Values taken from patent US20080214680A1, “Application of arsenic as a cancer prevention agent” (priority 2003, published 2008).
